This passage reports DC50 results from patent publication US20250059164A1, “IRAK DEGRADERS AND USES THEREOF” (Kymera Therapeutics, Inc., priority 2023, published 2025).

The DC50 is the concentration at which degradation of the target reaches its halfway point.

The experiment concerns the target T1, IRAK4 (Homo sapiens, UniProt Q9NWZ3).
T1 construct: endogenous in cells; host or cells: OCI-LY10
T1 sequence (Q9NWZ3 1-460): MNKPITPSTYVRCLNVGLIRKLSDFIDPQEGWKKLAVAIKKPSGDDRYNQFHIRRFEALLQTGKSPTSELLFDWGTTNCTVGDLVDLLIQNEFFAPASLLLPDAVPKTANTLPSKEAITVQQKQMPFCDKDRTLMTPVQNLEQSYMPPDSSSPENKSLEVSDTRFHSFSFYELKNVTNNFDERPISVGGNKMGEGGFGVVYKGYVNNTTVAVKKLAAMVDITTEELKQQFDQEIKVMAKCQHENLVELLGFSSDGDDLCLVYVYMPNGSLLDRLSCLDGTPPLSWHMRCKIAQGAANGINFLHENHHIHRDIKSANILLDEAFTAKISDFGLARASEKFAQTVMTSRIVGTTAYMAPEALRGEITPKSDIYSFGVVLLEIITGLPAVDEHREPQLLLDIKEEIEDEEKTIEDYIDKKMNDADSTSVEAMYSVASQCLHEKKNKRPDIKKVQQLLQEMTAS
In words: IRAK4 MSD degradation in OCI-LY10. Format: cell-based. The note with it: OCI-LY10 cells, 24 hrs, Meso Scale Discovery. The method in brief: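 OCI-LY10 cells treated 4 to 24 hours at 37° C. with 8-dose 1:3 series, top 1 to 10 μM. IRAK4 in lysates quantified by MSD sandwich immunoassay (mouse capture, rabbit detection, SULFO-TAG anti-rabbit). DC50 from three-parameter logistic fit.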

Some results are limits rather than exact numbers.

In turn, `COc1cc2nc([C@H]3CC[C@H](CN4CCC5(CCN(c6cccc7c6n(C)c(=O)n7C6CCC(=O)NC6=O)CC5)C(F)(F)C4)CC3)sc2cc1NC(=O)c1cncc(C#N)c1` (stereo partly drawn) [I-150] returned a DC50 greater than 200 nM. As to `C[C@H]1CN(c2ccn3ncc(C(=O)Nc4cn([C@H]5CC[C@H](CN(C)[C@H]6CCN(c7cccc8c7n(C)c(=O)n8C7CCC(=O)NC7=O)C[C@@H]6F)CC5)nc4C(F)F)c3n2)CCO1` (stereo partly drawn) [I-25], the 50% degradation concentration (DC50) was less than 10 nM. In the case of `CN(C[C@H]1CC[C@H](n2cc(NC(=O)c3cnn4ccc(N5C[C@H]6C[C@@H]5CO6)nc34)c(C(F)F)n2)CC1)[C@H]1CCN(c2cccc3c2n(C)c(=O)n3[C@H]2CCC(=O)NC2=O)C[C@@H]1F` (single isomer, unassigned) [I-144], the DC50 is less than 10 nM. For `Cn1c(=O)n(C2CCC(=O)NC2=O)c2cccc(N3CCN(C[C@H]4CC[C@H](n5cc6cc(NC(=O)c7cncc(C(F)(F)F)n7)ccc6n5)CC4)[C@@H](C(F)(F)F)C3)c21` (stereo partly drawn) [I-369], the DC50 lay within 100 to 200 nM. The same measure for `Cn1c(=O)n(C2CCC(=O)NC2=O)c2cccc([C@H]3CCN(C[C@H]4CC[C@H](c5nc6ccc(NC(=O)c7cccc(C(F)(F)F)n7)cc6s5)CC4)C[C@@H]3F)c21` (stereo partly drawn) [I-97]: 10 to 100 nM; for `O=C1CCC(Nc2cccc(N3CC(CO[C@@H]4CCN(C[C@H]5CC[C@H](n6cc(NC(=O)c7cnn8ccc(N9C[C@H]%10C[C@@H]9CO%10)nc78)c(C(F)F)n6)CC5)C[C@@H]4F)C3)c2)C(=O)N1` (stereo partly drawn) [I-5]: 10 to 100 nM; for `Cc1nn(C2CCC(=O)NC2=O)c2cc(F)cc(N3CC(CN4CCN(C[C@H]5CC[C@H](n6cc(NC(=O)c7cnn8ccc(N9C[C@H]%10C[C@@H]9CO%10)nc78)c(C(F)F)n6)CC5)CC4)C3)c12` (stereo partly drawn) [I-92]: less than 10 nM.

On to `COc1ccc2c(c1N1CC[C@@H](N(C)C[C@H]3CC[C@H](n4cc(NC(=O)c5cnn6cccnc56)c(C(F)F)n4)CC3)[C@@H](F)C1)n(C)c(=O)n2C1CCC(=O)NC1=O` (single isomer, unassigned) [I-153], for which the DC50 is less than 10 nM. The figure for `COc1cc2nc([C@H]3CC[C@H](CN4CC[C@H](c5cccc6c5n(C)c(=O)n6C5CCC(=O)NC5=O)[C@@H](F)C4)CC3)sc2cc1NC(=O)c1cccc(C(F)(F)F)n1` (single isomer, unassigned) [I-79] is greater than 200 nM; for `CN(C[C@H]1CC[C@H](n2cc3cc(NC(=O)c4cccc(C(F)(F)F)n4)c(C#N)cc3n2)CC1)[C@@H]1CCN(c2cccc3c2n(C)c(=O)n3C2CCC(=O)NC2=O)C[C@@H]1F` (stereo partly drawn) [I-10] it is less than 10 nM. The same measure for `COc1cc2nn([C@H]3CC[C@H](CN(C)[C@H]4CCN(c5cccc6c5n(C)c(=O)n6C5CCC(=O)NC5=O)C[C@@H]4F)CC3)cc2cc1NC(=O)c1cccc(C(F)(F)F)n1` (stereo partly drawn) [I-80]: less than 10 nM. The same measure for `Cn1c(=O)n(C2CCC(=O)NC2=O)c2cccc([C@@H]3CCN(C[C@H]4CC[C@H](n5cc6cc(NC(=O)c7cncc(C(F)(F)F)n7)ccc6n5)CC4)CC3(F)F)c21` (single isomer, unassigned) [I-179]: less than 10 nM; for `COc1cc2nn([C@H]3CC[C@H](CN4CC[C@@H](c5cccc6c5c(C)nn6C5CCC(=O)NC5=O)[C@H](F)C4)CC3)cc2cc1NC(=O)c1cncc(C#N)c1` (single isomer, unassigned) [I-265]: less than 10 nM; for `Cn1c(=O)n(C2CCC(=O)NC2=O)c2cccc([C@@H]3CCN(C[C@H]4C[C@H](n5cc6cc(NC(=O)c7cccc(C(F)(F)F)n7)c(C#N)cc6n5)C4)C[C@H]3F)c21` (stereo partly drawn) [I-94]: less than 10 nM.

Turning to `Cn1c(=O)n(C2CCC(=O)NC2=O)c2cccc(C3CCN(C[C@H]4CC[C@H](n5cc6cc(NC(=O)c7cncc(C(F)(F)F)n7)ccc6n5)CC4)C(=O)C3)c21` (stereo partly drawn) [I-358], the DC50 was less than 10 nM. The figure for `CN(C[C@H]1CC[C@H](n2cc3cc(NC(=O)c4cccc(C(F)(F)F)n4)ncc3n2)CC1)[C@@H]1CCN(c2cccc3c2n(C)c(=O)n3C2CCC(=O)NC2=O)C[C@@H]1F` (stereo partly drawn) [I-35] is less than 10 nM; for `COc1cc2nn([C@H]3CC[C@H](CN(C)[C@H]4CCN(c5cccc6c5n(C)c(=O)n6C5CCC(=O)NC5=O)C[C@H]4F)CC3)cc2cc1NC(=O)c1cccc(C(F)(F)F)n1` (stereo partly drawn) [I-82] it is less than 10 nM. `Cn1c(=O)n(C2CCC(=O)NC2=O)c2cccc([C@H]3CCN(C[C@H]4CC[C@H](n5cc6cc(NC(=O)c7cccc(C(F)(F)F)n7)c(C#N)cc6n5)CC4)C[C@@H]3F)c21` (single isomer, unassigned) [I-96] displayed a DC50 of less than 10 nM. Turning to `O=C1CCC(c2ccc(N3CC(CO[C@@H]4CCN(C[C@H]5CC[C@H](n6cc(NC(=O)c7cnn8ccc(N9C[C@H]%10C[C@@H]9CO%10)nc78)c(C(F)F)n6)CC5)C[C@@H]4F)C3)cc2Cl)C(=O)N1` (stereo partly drawn) [I-38], the DC50 is less than 10 nM. `CN(C[C@H]1CC[C@H](c2cn3cc(NC(=O)c4cncc(C(F)(F)F)n4)c(C(C)(C)O)cc3n2)CC1)[C@H]1CCN(c2cccc3c2n(C)c(=O)n3C2CCC(=O)NC2=O)C[C@@H]1F` (single isomer, unassigned) [I-335] yielded a DC50 of less than 10 nM.

In the case of `CN(C[C@H]1CC[C@H](n2cc3cc(NC(=O)c4cccc(C(F)(F)F)n4)c(C#N)cc3n2)CC1)[C@H]1CCN(c2cccc3c2n(C)c(=O)n3C2CCC(=O)NC2=O)C[C@@H]1F` (stereo partly drawn) [I-9], the DC50 is less than 10 nM. `Cn1c(=O)n(C2CCC(=O)NC2=O)c2cccc([C@H]3CCN(C[C@H]4CC[C@H](n5cc6cc(NC(=O)c7cccc(C(F)(F)F)n7)c(C(C)(C)O)cc6n5)CC4)C[C@@H]3F)c21` (stereo partly drawn) [I-63] yielded a DC50 of less than 10 nM. As for `Cn1c(=O)n(C2CCC(=O)NC2=O)c2cccc([C@@H]3CCN(C[C@H]4CC[C@H](n5cc6cc(NC(=O)c7cccc(C(F)(F)F)n7)c(C#N)cc6n5)CC4)C[C@H]3F)c21` (single isomer, unassigned) [I-95], the DC50 is less than 10 nM.

As for `O=C1CCN(c2cncc3c(N4CC(CN5CCN(C[C@H]6CC[C@H](n7cc(NC(=O)c8cnn9ccc(N%10C[C@H]%11C[C@@H]%10CO%11)nc89)c(C(F)F)n7)CC6)CC5)C4)cccc23)C(=O)N1` [I-74], the DC50 is less than 10 nM. Compound `CN(C[C@H]1CC[C@H](n2cc3cc(NC(=O)c4cccc(C(F)(F)F)n4)ncc3n2)CC1)[C@H]1CCN(c2cccc3c2n(C)c(=O)n3C2CCC(=O)NC2=O)C[C@@H]1F` (single isomer, unassigned) [I-36] registered a DC50 of 10 to 100 nM.

The compound `N#Cc1cncc(C(=O)Nc2cc3cn([C@H]4CC[C@H](CN5CCN(CC(=O)Nc6cccc7c(C8CCC(=O)NC8=O)noc67)CC5)CC4)nc3cn2)c1` (stereo partly drawn) [I-84] came in with a DC50 greater than 200 nM. The compound `COc1cc2nc([C@H]3CC[C@H](CN(C)[C@H]4CCN(c5cccc6c5n(C)c(=O)n6C5CCC(=O)NC5=O)C[C@@H]4F)CC3)cn2cc1NC(=O)c1cncc(C(F)(F)F)n1` (single isomer, unassigned) [I-318] returned a DC50 of less than 10 nM. `COc1ccc2c(c1N1CCC3(CCN(C[C@H]4CC[C@H](n5cc6cc(NC(=O)c7cncc(C#N)c7)c(C(C)(C)O)cc6n5)CC4)CC3(F)F)CC1)n(C)c(=O)n2C1CCC(=O)NC1=O` (stereo partly drawn) [I-397]: the 50% degradation concentration (DC50) was less than 10 nM. `Cc1nn(C2CCC(=O)NC2=O)c2cccc([C@H]3CCN(C[C@H]4CC[C@H](n5cc6cc(NC(=O)c7cccc(C(F)(F)F)n7)ncc6n5)CC4)C[C@@H]3F)c12` (stereo partly drawn) [I-53] returned a DC50 of 10 to 100 nM. On to `CN1C(=O)CCC(n2c(=O)n(C)c3c([C@@H]4CCN(C[C@H]5CC[C@H](n6cc7cc(NC(=O)c8cncc(C(F)(F)F)n8)ccc7n6)CC5)C[C@H]4F)cccc32)C1=O` (stereo partly drawn) [I-382], for which the DC50 is greater than 200 nM.
